{
  "source": "paper PMC5675618",
  "about": "“Identification and validation of FGFR2 peptide for detection of early Barrett's neoplasia” (Oncotarget, 2017)",
  "molecules": {"B1": {"name": "SRR*-Cy5.5 (peptide)", "peptide": "SRRPASFRTAREGGGSK(Cy5.5)-NH2", "notes": "12-residue peptide selected by phage display (Ph.D.-12 library) against FGFR2-ECD; linker on the C-terminus that carries the Cy5.5; Assembled on rink amide MBHA resin, so the C-terminus is probably an amide; also called FGFR2 peptide; source: synthetic peptide (Fmoc solid-phase synthesis, prep-HPLC, >97%)"}},
  "key": {"Barrett's neoplasia": {"test_system": "Barrett's neoplasia", "conditions": "topical to mucosal surface, clinic, ref [19], [20], cited from earlier work", "description": "An empiric peptide labeled with FITC was administered topically to the mucosal surface. Early neoplasia was detected with 94% specificity and 96% positive predictive value. Included in the analysis were 28 flat lesions (Paris 0-IIb) that were poorly visualized with white light. […] Peptides have high diversity, and can achieve high specificity with binding affinities on the ..."}, "[1]": {"test_system": "FGFR2c, AKT, ERK phosphorylation in QhTERT cells", "assay": "Western blot, effect of peptide binding on cell signaling, QhTERT cells expressing FGFR2c", "assay_type": "cell-based, human", "conditions": "20 min", "description": "(§1) QhTERT cells that overexpress either FGFR2b or FGFR2c were seeded in 12-well flat-bottom plates with 500 μL of serum-free medium for 16 hours. FGF1 (#2232-FA-025, R&D systems) was reconstituted to a concentration of 100 μg/mL using PBS, diluted with 0.1% bovine serum albumin, and added to the cells at final concentrations of 100 ng/mL for 20 min in separate wells. Heparin (# H3149-10KU, Sigma) with final concentration of 100 units/mL was also added to increase stability. In addition, peptides at concentrations of 5 and 100 μM were incubated for 20 min in separate wells. The cells were washed with PBS and lysed in RIPA buffer containing protease inhibitors (#11836170001, Roche, Basel, Switzerland). Lysates were separated by gel electrophoresis, transferred to polyvinylidene difluoride membranes (#ISEQ00010, Millipore), and detected by immunoblotting using an enhanced chemiluminescence system (#RPN2106, GE Healthcare). Anti-FGFR2 antibody (#SC122, Santa Cruz Biotechnology), anti-phospho-FGFR (#3471, Cell Signaling Technology), anti-AKT (#4691P, Cell Signaling Technology), anti-ERK1/2 (#4695P, Cell Signaling Technology), anti-phospho-AKT (pS473; #4060P, Cell Signaling Technology), anti-phospho-ERK1/2 (#4370P, Cell Signaling Technology), and anti-tubulin (#32–2600, Invitrogen) were used as per manufacturer's instructions."}, "[2]": {"test_system": "FGFR2b, AKT, ERK phosphorylation in QhTERT cells", "assay": "Western blot, effect of peptide binding on cell signaling, QhTERT cells expressing FGFR2b", "assay_type": "cell-based, human", "conditions": "20 min", "description": "as §1"}, "[3]": {"test_system": "QhTERT cells that express FGFR2c", "assay": "Competition for binding of SRR^*-Cy5.5 with unlabeled peptide, confocal microscopy", "assay_type": "cell-based, human", "conditions": "30 min at 4°C, then 5 μM SRR^*-Cy5.5, 30 min at 4°C", "description": "Specific peptide binding to QhTERT/FGFR2c was validated on competitive inhibition with addition of unlabeled peptide. ~10^3 cells were grown to ~70% confluence on cover glass in triplicate. Unlabeled peptides at concentrations of 0, 50, 100, 150, 250, and 500 μM were incubated with the cells for 30 min at 4°C. The cells were washed and incubated with 5 μM of the target peptide for another 30 min at 4°C. The cells were washed and fixed with 4% PFA for 5 min. The cells were washed with PBS and mounted with ProLong Gold reagent containing DAPI (Invitrogen)."}, "[4]": {"test_system": "QhTERT cells that express FGFR2b", "assay": "Confocal fluorescence microscopy, binding to QhTERT cells that express FGFR2b", "assay_type": "cell-based, human", "conditions": "1 μM peptide, 10 min at RT; confocal, 63X", "description": "(§2) All human esophageal specimens were obtained with written, informed patient consent per approval and guidelines of the University of Michigan Institutional Review Board (IRB). Human non-dysplastic Barrett's esophagus (BE) cells immortalized with hTert (QhTERT) were obtained from the American Type Culture Collection (ATCC) and cultured in keratinocyte-serum free medium containing bovine pituitary extract and human recombinant EGF (ThermoFisher #17005042). QhTERT cells with stable expression of FGFR2b or FGFR2c were provided (DGB). We cultured these cells with keratinocyte-serum free medium containing bovine pituitary extract and human recombinant EGF (ThermoFisher #17005042) and added 1 μg/mL of puromycin-dihydrochloride (Invitrogen #A11138-03). All cells were cultured at 37°C in 5% CO2, and were passaged using 0.25% EDTA containing trypsin (Mediatech Inc). A hemocytometer was used to determine cell number. Peptide synthesis reagents were obtained from either Anaspec or AAPPTEC with the highest grade available (>99% purity) and used without further purification. Solvents and other chemical reagents were obtained from Sigma-Aldrich, unless otherwise stated.\n(§3) ~10^3 QhTERT/wt, QhTERT/FGFR2b, and QhTERT/FGFR2c cells were grown on cover glass to ~80% confluence. The cells were washed with PBS 1X and incubated with 1 μM of either peptide for 10 min at RT. The cells were then washed 3X in PBS, fixed with 4% paraformaldehyde (PFA) for 5 min, washed 1X with PBS, and then mounted on glass slides with ProLong Gold reagent containing DAPI (Invitrogen). Confocal fluorescence images were collected with Cy5.5 and DAPI filters (Leica Inverted SP5X 2-Photon FLIM confocal microscopes) using a 63X oil-immersion objective. Fluorescence intensities from 3 cells in each of 3 independent images were quantified using custom Matlab (Mathworks) software."}, "[5]": {"test_system": "QhTERT cells that express FGFR2c", "assay": "Confocal fluorescence microscopy, binding to QhTERT cells that express FGFR2c", "assay_type": "cell-based, human", "conditions": "1 μM peptide, 10 min at RT; confocal, 63X", "description": "as §2, §3"}, "[6]": {"assay": "Fluorescence spectra of Cy5.5-labeled peptides", "assay_type": "physicochemical", "conditions": "10 μM in PBS, excitation λex = 671 nm", "description": "We synthesized the 12 amino acid sequence SRRPASFRTARE (black) and attached the fluorophore Cy5.5 (red) via a GGGSK linker (blue) on the C-terminus, hereafter SRR^*-Cy5.5, Figure 1A. Cy5.5 was chosen for photostability and high quantum yield in the near-infrared (NIR) spectrum. We used a linker to prevent steric hindrance of the peptide by the dye. We then used a structural model (1EV2), [24] […] This domain is the same in either isoform FGFR2IIIb or FGFR2IIIc. We also used this model to develop a scrambled sequence SPSRERTFRARA for a control, Figure 1C. This peptide was also labeled with Cy5.5 via a GGGSK linker, hereafter SPS^*-Cy5.5. For SPS^*-Cy5.5, we calculated Et = −277.37. […] We purified SRR^*-Cy5.5 and […] to >97% on HPLC, and measured an experimental mass-to-charge (m/z) ratio on mass spectrometry of 2385.31 for both peptides that agreed with the expected value, Supplementary Figure 3.\nFigure 1 Peptide specific for FGFR2 Chemical structure is shown for 12 amino acid (aa) peptide sequence (A) SRRPASFRTARE (SRR^*) found to be specific for FGFR2, and (B) scrambled peptide SPSRERTFRARA (SPS^*) used for control. A Cy5.5 fluorophore (red) is attached via a GGGSK linker (blue) to prevent steric hindrance."}, "QhTERT wild-type cells": {"test_system": "QhTERT wild-type cells", "assay": "Confocal fluorescence microscopy, binding to wild-type QhTERT cells", "assay_type": "cell-based, human", "conditions": "1 μM peptide, 10 min at RT, 63X", "description": "as §2, with “Peptide synthesis reagents were obtained from either Anaspec or AAPPTEC with the highest grade available (>99% purity) and used without further purification. Solvents and other chemical reagents were obtained from Sigma-Aldrich, unless otherwise stated.” left out\n~10^3 QhTERT/wt, QhTERT/FGFR2b, and QhTERT/FGFR2c cells were grown on cover glass to ~80% confluence. […] Confocal fluorescence images were collected with Cy5.5 and DAPI filters (Leica Inverted SP5X 2-Photon FLIM confocal microscopes) using a 63X oil-immersion objective. Fluorescence intensities from 3 cells in each of 3 independent images were quantified using custom Matlab (Mathworks) software."}, "FGFR2c on QhTERT cells": {"target": "T1, FGFR2c on QhTERT cells (UniProt P21802-1 22-821)", "T1 construct": "fibroblast growth factor receptor 2, isoform IIIc (C-terminus of D3 encoded by exon 9), stably expressed in human QhTERT cells; also called FGFR2IIIc; isoform IIIc of FGFR2", "T1 sequence (P21802 22-821)": "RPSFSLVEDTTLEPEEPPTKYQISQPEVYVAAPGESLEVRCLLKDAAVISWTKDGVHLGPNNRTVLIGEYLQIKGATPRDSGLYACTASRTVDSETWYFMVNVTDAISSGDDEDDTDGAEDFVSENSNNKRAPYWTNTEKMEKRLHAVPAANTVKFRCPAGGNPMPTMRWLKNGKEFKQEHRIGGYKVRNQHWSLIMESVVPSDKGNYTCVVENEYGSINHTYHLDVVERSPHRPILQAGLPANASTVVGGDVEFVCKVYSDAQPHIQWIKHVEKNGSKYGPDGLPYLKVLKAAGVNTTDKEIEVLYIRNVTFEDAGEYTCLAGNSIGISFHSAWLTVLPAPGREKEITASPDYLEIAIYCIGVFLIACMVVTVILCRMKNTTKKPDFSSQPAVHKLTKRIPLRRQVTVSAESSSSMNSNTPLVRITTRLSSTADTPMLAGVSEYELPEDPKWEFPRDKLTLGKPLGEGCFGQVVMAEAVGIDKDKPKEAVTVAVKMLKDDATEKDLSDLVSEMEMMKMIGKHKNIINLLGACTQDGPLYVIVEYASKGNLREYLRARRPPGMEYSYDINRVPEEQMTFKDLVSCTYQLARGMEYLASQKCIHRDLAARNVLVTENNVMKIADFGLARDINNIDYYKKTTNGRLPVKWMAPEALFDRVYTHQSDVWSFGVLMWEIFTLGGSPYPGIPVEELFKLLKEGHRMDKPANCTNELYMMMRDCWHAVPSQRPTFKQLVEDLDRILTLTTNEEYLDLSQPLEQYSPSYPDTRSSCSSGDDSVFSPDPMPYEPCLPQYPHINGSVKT", "assay": "flow cytometry on cells; apparent dissociation constant; Cy5.5-labeled peptide 0 to 200 nM in 25 nM increments in PBS, ~10^5 QhTERT/FGFR2c cells, 4°C for 1 hour, mean fluorescence intensity", "conditions": "one partner purified"}, "[7]": {"conditions": "FGF1 100 ng/mL, heparin 100 units/mL"}},
  "note": "No end group written: not given here. Cy5.5 = near-infrared fluorophore Cy5.5",
  "data": [
    {"molecule": "ASYNYDA [empiric peptide labeled with FITC, 7 amino acid peptide ASYNYDA that was labeled with FITC]", "values": [
      {"measurement": "positive predictive value, early neoplasia detection", "setting": "Barrett's neoplasia; included 28 flat lesions", "result": 96, "unit": "%"},
      {"measurement": "specificity, early neoplasia detection", "setting": "Barrett's neoplasia; included 28 flat lesions", "result": 94, "unit": "%"},
      {"measurement": "time of binding", "setting": "Barrett's neoplasia", "result": "≤ 5", "unit": "min"}
    ]},
    {"molecule": "FGF1: FGF1 (#2232-FA-025, R&D systems), positive control [reference compound]", "values": [
      {"measurement": "phosphorylation of FGFR2 (p-FGFR), AKT (p-AKT) and ERK (p-ERK), positive control", "setting": "[1]; [7]", "result": "strong phosphorylation activity"},
      {"measurement": "phosphorylation of FGFR2 (p-FGFR), AKT (p-AKT) and ERK (p-ERK), positive control", "setting": "[2]; [7]", "result": "to some extent"}
    ]},
    {"molecule": "SPSRERTFRARA [SPS^*, unlabeled scrambled peptide … used for control]", "values": [
      {"measurement": "mean fluorescence intensity of SRR^*-Cy5.5 with unlabeled control peptide", "setting": "[3]; unlabeled SPS^* at any concentration (0, 50, 100, 150, 250, 500 μM)", "result": "No significant difference"}
    ]},
    {"molecule": "SPSRERTFRARA [SPS^*-Cy5.5]", "values": [
      {"measurement": "cell surface fluorescence signal / binding", "setting": "[4]", "result": "Minimal binding"},
      {"measurement": "cell surface fluorescence signal / binding", "setting": "[5]", "result": "Minimal binding"},
      {"measurement": "peak emission λem", "setting": "[6]", "result": 710, "unit": "nm"},
      {"measurement": "cell surface fluorescence signal / binding", "setting": "QhTERT wild-type cells", "result": "Minimal binding"}
    ]},
    {"molecule": "SRRPASFRTARE [SRR^*, unlabeled 12 amino acid peptide … specific for FGFR2]", "values": [
      {"measurement": "mean fluorescence intensity of SRR^*-Cy5.5 with unlabeled target peptide", "setting": "[3]; unlabeled SRR^* at 50 μM and greater vs 0 μM", "result": "significant reduction"},
      {"measurement": "phosphorylation of FGFR2 (p-FGFR), AKT (p-AKT) and ERK (p-ERK)", "setting": "[1]; peptide at 5 or 100 μM", "result": "no change in phosphorylation"},
      {"measurement": "phosphorylation of FGFR2 (p-FGFR), AKT (p-AKT) and ERK (p-ERK)", "setting": "[2]; peptide at 5 or 100 μM", "result": "no change in phosphorylation"}
    ]},
    {"molecule": "B1", "values": [
      {"measurement": "Kd", "setting": "FGFR2c on QhTERT cells", "result": 68, "unit": "nM"}
    ]}
  ]
}
